Measured values reported in ChEMBL document CHEMBL1201862, “PubChem BioAssay data set” (2004).
Calls of active or inactive are those of the source.

Key:
[1] = inhibitors of clade B AD8 Env fusion, dose response, cell-based, cherry-pick (AID 652062); format: functional;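 also: luciferase signal from cell-cell fusion driven by HIV-1 clade B AD8 Env; potency is for inhibitors of fusion seen as a drop in luminescence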
[2] = CEM21 lymphoblast cell cytotoxicity, dose response, cytotoxicity control for viral fusion inhibitor project, CellTiter-Glo luminescence, cherry-picked (AID 652042); format: functional, cell-based;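 also: potency for signal decrease meaning cytotoxicity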
[3] = system: H4; assay: Luminescence Cell-Based Dose Response HTS to Identify Activators of 5'UTR Stem-Loop Driven Prion Protein mRNA Translation in H4 Neuroglioblastoma Cells. [Related pubchem assays: 1829 (Project Summary), 1814 (Primary HTS)]; format: functional; details: Homo sapiens
[4] = Luminescence Cell-Based Dose Response HTS to Identify Activators of Luciferase Translation or Activity in H4 […] Cells. [Related pubchem assays: 1829 (Project Summary), 1814 (Primary HTS)]; format: functional
[5] = Luminescence Cell-Based Dose Confirmation to Identify Activators of 5'UTR Stem-Loop Driven Alpha-Synuclein mRNA Translation in H4 Neuroglioblastoma Cells. [Related pubchem assays: 1829 (Project Summary), 1814 (Primary HTS)]; format: functional
[6] = Luminescence Cell-Based Dose Response to Identify Activators of 5'UTR Stem-Loop Driven Prion Protein mRNA Translation in H4-C Neuroglioblastoma Cells. [Related pubchem assays: 1829 (Project Summary), 1814 (Primary HTS)]; format: functional
[7] = Luminescence Cell-Based Dose Response to Identify Activators of Luciferase Translation or Activity in H4-C Neuroglioblastoma Cells. [Related pubchem assays: 1829 (Project Summary), 1814 (Primary HTS)]; format: functional
[8] = Luminescence Cell-Based Dose Confirmation HTS to Identify Activators of 5'UTR Stem-Loop Driven Alpha-Synuclein mRNA Translation in H4 Neuroglioblastoma Cells. [Related pubchem assays: 1829 (Project Summary), 1814 (Primary HTS)]; format: functional
[9] = inhibitors of Vif binding to APOBEC3G peptide, primary screen, biochemical, TR-FRET, GST-Vif 1-94, biotin-A3G peptide, dose response retest (AID 1117319); format: functional;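 also: TR-FRET signal of purified GST-Vif binding a biotinylated A3G peptide; inhibitors lower the FRET signal by blocking Vif and A3G binding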
[10] = ADAM10 protease inhibitors, dose response, selectivity assay for ADAM17 exosite inhibitor project, biochemical, FRET peptide substrate, recombinant human ADAM10 (AID 743259);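 also: ADAM10 enzyme cleaving a FRET peptide substrate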
[11] = biological target: Disintegrin and metalloproteinase domain-containing protein 17 (Homo sapiens, UniProt P78536); assay: exosite inhibitors of ADAM17, dose response, biochemical (AID 743260)
[12] = HEK293 Cytotoxicity Assay Measured in Cell-Based System Using Plate Reader - 7071-01_Inhibitor_Dose_CherryPick_Activity_Set2.; format: functional
[13] = system: HEK293; assay: HEK293T cell cytotoxicity, dose response, cytotoxicity control, ATP luminescence, cherry-pick samples (AID 687005); format: functional, cell-based; details: Homo sapiens;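 also: cells exposed to compound for 48 hours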
[14] = THP-1 cell cytotoxicity, dose response, cytotoxicity control for Vif-APOBEC3G degradation inhibitor project, THP-1 cells (AID 1117359); format: functional; details: Human immunodeficiency virus 1, THP-1
[15] = non-specific cell cytotoxicity, dose response, cytotoxicity control for PAX8 inhibitor project, plate reader, dry powder samples (AID 743021); format: functional, cell-based
[16] = NIH:OVCAR-3 ovarian cancer cell cytotoxicity, dose response, PAX8 inhibitor project, plate reader, dry powder samples (AID 743044); format: functional, cell-based
[17] = biological target: Paired box protein Pax-8 (Homo sapiens, UniProt Q06710); assay: inhibitors of PAX8-driven TPO luciferase reporter, dose response, RMG-I cells, cherry-pick (AID 687027); format: functional, cell-based;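 also: luciferase reporter driven by Pax8 target thyroperoxidase promoter measured by SteadyGlo luminescence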
[18] = cytotoxicity in OVCAR8 ovarian cancer cells, dose response, PAX8 project, cell-based, plate reader, dry powder samples (AID 743197); format: functional; details: OVCAR-8
[19] = IOSE-T80 ovarian epithelial cell cytotoxicity, dose response, cytotoxicity control for PAX8 inhibitor project, plate reader, dry powder samples (AID 743045); format: functional, cell-based
[20] = biological target: T1, Nuclear receptor subfamily 0 group B member 1 (Homo sapiens, UniProt P51843); format: functional, cell-based;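 also: HEK293T cells transfected with SF-1 and DAX-1 plus StAR promoter luciferase reporter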
T1 sequence (P51843 whole entry): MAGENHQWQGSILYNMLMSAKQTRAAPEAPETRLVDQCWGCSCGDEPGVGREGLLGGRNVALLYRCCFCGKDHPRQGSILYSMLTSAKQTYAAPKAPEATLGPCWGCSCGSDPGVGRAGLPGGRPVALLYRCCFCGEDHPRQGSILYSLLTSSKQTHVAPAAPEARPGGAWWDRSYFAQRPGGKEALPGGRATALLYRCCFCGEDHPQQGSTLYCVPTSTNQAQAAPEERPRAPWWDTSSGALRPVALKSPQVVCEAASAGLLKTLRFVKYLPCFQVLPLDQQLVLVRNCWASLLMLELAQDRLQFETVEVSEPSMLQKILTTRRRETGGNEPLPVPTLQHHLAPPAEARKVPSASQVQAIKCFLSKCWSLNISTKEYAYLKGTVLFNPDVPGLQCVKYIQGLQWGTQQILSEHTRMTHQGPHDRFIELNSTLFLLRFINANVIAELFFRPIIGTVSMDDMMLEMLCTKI

[21] = cells; format: functional, cell-based
[22] = biological target: Protein-tyrosine kinase 2-beta (Homo sapiens, UniProt Q14289);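 also: potency of inhibitors of PYK2 kinase phosphorylation of poly-GT substrate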
[23] = biological target: Luciferin 4-monooxygenase (Photinus pyralis, UniProt P08659); assay: firefly luciferase enzyme inhibitors, dose response, biochemical, luminescence (AID 1891)
[24] = Luminescence Cell-Based Dose Confirmation HTS to Identify Inhibitors of Platelet Dense Granule Release. [Related pubchem assays: 1663 (Primary HTS), 1678 (Summary of Project)]; format: functional

Luciferin 4-monooxygenase, sequence (P08659 whole entry): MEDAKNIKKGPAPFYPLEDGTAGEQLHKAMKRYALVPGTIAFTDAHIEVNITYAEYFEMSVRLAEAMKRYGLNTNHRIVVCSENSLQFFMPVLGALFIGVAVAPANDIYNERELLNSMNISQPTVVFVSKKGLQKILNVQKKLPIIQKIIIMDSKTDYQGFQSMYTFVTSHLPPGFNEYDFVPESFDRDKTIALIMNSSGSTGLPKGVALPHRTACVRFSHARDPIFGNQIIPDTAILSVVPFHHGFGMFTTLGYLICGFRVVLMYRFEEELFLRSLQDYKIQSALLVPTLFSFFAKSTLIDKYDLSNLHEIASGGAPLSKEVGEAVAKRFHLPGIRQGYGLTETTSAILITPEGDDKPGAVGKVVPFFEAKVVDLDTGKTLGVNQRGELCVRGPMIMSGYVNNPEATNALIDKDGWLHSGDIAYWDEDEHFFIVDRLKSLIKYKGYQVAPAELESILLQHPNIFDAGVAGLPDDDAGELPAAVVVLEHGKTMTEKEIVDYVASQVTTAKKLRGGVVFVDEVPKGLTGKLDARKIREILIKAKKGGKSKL
Protein-tyrosine kinase 2-beta, sequence (Q14289 whole entry): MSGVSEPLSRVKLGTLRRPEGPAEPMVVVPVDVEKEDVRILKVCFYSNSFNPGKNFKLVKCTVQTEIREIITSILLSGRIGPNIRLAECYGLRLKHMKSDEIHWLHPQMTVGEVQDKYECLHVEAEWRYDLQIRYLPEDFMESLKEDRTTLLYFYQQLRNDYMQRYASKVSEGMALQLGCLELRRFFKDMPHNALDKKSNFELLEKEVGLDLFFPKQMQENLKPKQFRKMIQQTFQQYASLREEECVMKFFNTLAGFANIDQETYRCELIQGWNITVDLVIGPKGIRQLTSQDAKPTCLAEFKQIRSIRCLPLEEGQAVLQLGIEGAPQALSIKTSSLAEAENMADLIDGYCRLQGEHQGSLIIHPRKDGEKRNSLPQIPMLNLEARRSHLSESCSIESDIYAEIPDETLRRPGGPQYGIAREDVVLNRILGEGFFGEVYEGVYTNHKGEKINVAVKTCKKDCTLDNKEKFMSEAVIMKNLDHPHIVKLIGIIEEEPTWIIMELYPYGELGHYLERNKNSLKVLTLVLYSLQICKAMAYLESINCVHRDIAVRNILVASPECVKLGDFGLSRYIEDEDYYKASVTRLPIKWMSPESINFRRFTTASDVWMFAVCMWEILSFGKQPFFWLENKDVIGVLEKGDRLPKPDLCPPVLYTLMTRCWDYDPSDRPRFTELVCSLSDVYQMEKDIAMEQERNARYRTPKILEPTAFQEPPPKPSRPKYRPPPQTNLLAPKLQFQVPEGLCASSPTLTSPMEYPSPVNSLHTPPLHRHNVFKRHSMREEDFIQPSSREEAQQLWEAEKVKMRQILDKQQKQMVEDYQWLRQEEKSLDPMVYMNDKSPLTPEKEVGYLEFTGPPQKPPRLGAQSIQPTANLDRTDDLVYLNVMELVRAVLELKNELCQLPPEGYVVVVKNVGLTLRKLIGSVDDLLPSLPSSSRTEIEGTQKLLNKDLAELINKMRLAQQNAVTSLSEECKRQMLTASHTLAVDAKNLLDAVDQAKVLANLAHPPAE
Disintegrin and metalloproteinase domain-containing protein 17, sequence (P78536 whole entry, the tested form may be a part): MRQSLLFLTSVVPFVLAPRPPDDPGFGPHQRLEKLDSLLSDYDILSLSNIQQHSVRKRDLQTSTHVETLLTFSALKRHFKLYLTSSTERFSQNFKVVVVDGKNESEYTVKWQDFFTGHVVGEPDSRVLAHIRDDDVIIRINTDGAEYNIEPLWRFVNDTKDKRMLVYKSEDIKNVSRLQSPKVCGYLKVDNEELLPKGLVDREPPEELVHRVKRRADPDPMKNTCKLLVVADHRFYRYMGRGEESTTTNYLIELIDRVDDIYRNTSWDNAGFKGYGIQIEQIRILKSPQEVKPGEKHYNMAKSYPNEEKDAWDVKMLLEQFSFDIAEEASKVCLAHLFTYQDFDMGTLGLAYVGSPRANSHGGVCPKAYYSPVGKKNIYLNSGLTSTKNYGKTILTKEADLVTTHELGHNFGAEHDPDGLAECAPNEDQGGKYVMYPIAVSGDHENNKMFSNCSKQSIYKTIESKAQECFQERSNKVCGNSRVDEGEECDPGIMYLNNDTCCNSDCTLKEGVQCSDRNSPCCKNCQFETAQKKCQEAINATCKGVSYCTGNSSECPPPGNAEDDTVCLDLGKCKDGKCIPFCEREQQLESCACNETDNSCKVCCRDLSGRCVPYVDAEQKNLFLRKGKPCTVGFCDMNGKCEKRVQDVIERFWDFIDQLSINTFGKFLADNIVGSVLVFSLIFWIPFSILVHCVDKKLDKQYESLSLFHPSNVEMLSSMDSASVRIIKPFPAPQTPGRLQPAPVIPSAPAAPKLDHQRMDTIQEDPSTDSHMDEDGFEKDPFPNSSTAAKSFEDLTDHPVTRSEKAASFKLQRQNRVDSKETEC
Paired box protein Pax-8, sequence (Q06710 whole entry): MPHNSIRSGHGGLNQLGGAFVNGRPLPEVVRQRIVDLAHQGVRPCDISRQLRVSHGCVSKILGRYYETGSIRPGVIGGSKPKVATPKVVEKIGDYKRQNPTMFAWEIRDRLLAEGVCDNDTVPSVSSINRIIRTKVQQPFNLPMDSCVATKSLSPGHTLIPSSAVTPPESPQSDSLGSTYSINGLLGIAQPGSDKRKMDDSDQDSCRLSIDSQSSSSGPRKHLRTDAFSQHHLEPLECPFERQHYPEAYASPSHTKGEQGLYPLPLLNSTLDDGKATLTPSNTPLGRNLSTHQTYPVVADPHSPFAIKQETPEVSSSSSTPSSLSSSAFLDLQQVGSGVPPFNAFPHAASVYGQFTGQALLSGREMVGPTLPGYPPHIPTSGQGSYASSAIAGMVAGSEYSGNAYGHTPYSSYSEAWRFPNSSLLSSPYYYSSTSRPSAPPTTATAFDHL

In the case of `N#C[C@@H]1[C@H](c2ccc(-c3cccc(F)c3)cc2)[C@H](CO)N1C(=O)c1cccnc1`, the AC50 [1] is reported as 3.62 µM (active) and the AC50 [2] is reported as 57.4 µM (active).

In the case of `c1ccc2c(c1)Cn1nc(Cc3nc4c(s3)CCCC4)nc1-2`, the EC50 [3] is reported as 10.3 µM (active), the EC50 [4] is reported as 7.06 µM (active) and the EC50 [5] is reported as > 3.8 µM (not active). The EC50 [6] was > 12 µM (not active), the EC50 [7] was > 12 µM (not active) and the EC50 [8] was < 100 nM (active).

With `COC(=O)c1ccc(-n2nnnc2SCC(=O)Nc2cc(OC)ccc2OC)cc1` the IC50 [9] was > 100 µM (active).

In the case of `Cc1nc2ccc(NC(=O)c3ccc(S(=O)(=O)N(C)c4ccccc4)cc3)cc2s1`, the IC50 [10] is reported as > 69.5 µM (inactive) and the IC50 [11] is reported as > 69.5 µM (inactive).

In the case of `Cc1ccc(N(CC(=O)NCCSCc2ccco2)S(=O)(=O)c2ccc(F)cc2)cc1`, the AC50 [12] is reported as 31.9 µM (active), the AC50 [13] is reported as 31.9 µM (active) and the CC50 [14] is reported as > 40 µM (active).

For `C[C@H](CO)N1C[C@H](C)[C@@H](CN(C)S(=O)(=O)c2ccc(Cl)cc2)OCCCC[C@H](C)Oc2ccc(NS(=O)(=O)c3cccs3)cc2C1=O`, the AC50 [15] was 21.4 µM (active), the AC50 [16] was 15 µM (active) and the AC50 [17] was 4.18 µM (active). For the same compound, the AC50 [18] was 24.5 µM (active) and the AC50 [19] was 12.7 µM (active).

For `Cc1cccc(N2CCN(C(=O)c3[nH]c(C(F)(F)F)nc3-c3ccccc3)CC2)c1C`, the IC50 [20] was > 67.5 µM (inactive) and the IC50 [21] was > 67.5 µM (inactive).

For `CN1C(=O)/C(=C/c2cn(CC(=O)N3CCCCC3)c3ccccc23)c2ccccc21`, the IC50 [22] was 46.6 µM (not active), the EC50 [23] was > 112 µM (not active) and the EC50 [24] was > 112 µM (not active).

In the case of `O=C(Nc1cccnc1)c1cc(-c2cc(Cl)ccc2O)n[nH]1`, the EC50 [3] is reported as 0.608 µM (active), the EC50 [4] is reported as 6.15 µM (active) and the EC50 [5] is reported as 0.439 µM (active). The EC50 [6] was > 12 µM (not active) and the EC50 [7] was 0.56 µM (active).
